According to patent EP4711365A1 (Shanghai Hansoh Biomedical Co., Ltd., priority 2023, dated 2024):

Assays:
[1] = Pharmacokinetic assay in Wistar rats, oral; conditions: rat, 30 mg/kg
Procedure: Experimental objective: to study the pharmacokinetic behaviours of the compounds of the present invention in the body (plasma) of Wistar rats as test animals after oral administration at a dose of 30 mg/kg. • 2. Experimental scheme • 2.1 Test drugs: the examples of the present invention, prepared in house. • 2.2 Test animals: Wistar rats (female, 3 rats per group), from Beijing Vital River Laboratory Animal Technology Co., Ltd., with the animal production license no.
Solutol HS15 was melted in a water bath at 50-60°C, and then 50 mL of the melted Solutol HS15 was added to 450 mL of ultrapure water. The mixture was stirred and sonicated to obtain 500 mL of 10% Solutol HS15 solution. The compound was weighed, and according to the total administration volume, 30% PEG solution was first added. The mixture was shaken uniformly and sonicated until a clear solution was obtained. Subsequently, 70% (10% Solutol) in water was added, resulting in a colourless and clear solution with a concentration of 3.0 mg/mL.
2.4 Administration scheme: After overnight fasting, 3 female Wistar rats per group were administered orally (PO) at a dose of 30 mg/kg with an administration volume of 10 mL/kg.
• 1) To 50 uL of plasma sample was added 250 uL of acetonitrile for precipitation, and the mixture was mixed and then centrifuged at 4°C at 4000 rpm for 20 minutes. • 2) The treated supernatant solution was taken and subjected to LC/MS/MS to analyse the concentration of the test compounds. LC/MS/MS analysis instrument: AB Sciex API-4000 Qtrap-Shimadzu Controller-CBM20A.
• Chromatographic column: Waters Xbridge C18 3.5 um 2.1*50 mm • Mobile phase: solution A: 0.1% formic acid in water, and solution B: 0.1% formic acid in acetonitrile • Flow rate: 0.6 mL/min • Elution time: 0-3.5 minutes, with eluents as follows:

[2] = test system: Groα secretion by HT-29 cells; assay: Inhibition of Groα secretion by HT-29 cells stimulated with IL-17A (ELISA); assay type: cell-based, Human; conditions: Homo sapiens, IL-17A 30 ng/ml, Groα in supernatant
Procedure: Test example 2 Assay for inhibitory effect of compounds of the present invention against Groα secretion by HT-29 cells
Experimental objective: to measure the inhibitory effect of the compounds against Groα secretion by HT-29 cells, thereby evaluating the inhibition of the compounds on IL-17A pathway.
Experimental method: A cell suspension at 50,000 cells/ml was prepared, and 200 µl of the cell suspension was added to each well of a 96-well plate, i.e., 10,000 cells/well. The plate was cultured overnight. In the 96-well V-bottom plate, 5 mM compound solution was serially diluted 3-fold using DMSO, and the compound from each well was diluted 100-fold using a complete culture medium. IL-17A protein (R&D, #BT7955-025/CF) with a stock concentration of 100 µg/ml was diluted 333.33-fold using a complete culture medium. The compound and IL-17A were mixed at a volume ratio of 1:1 and incubated at 37°C for 30 minutes. 50 µl of a mixture of the compound and IL-17A was added to cell wells, and the final concentration of IL-17A protein was 30 ng/ml.
The mixture was incubated in a 37°C, 5% CO2 cell culture incubator for 48 hours. The concentration of Groα in the supernatant was determined by ELISA method using Human Groα Valukin Elisa kit (Biotechne, # VAL139), and the absorbance intensity at 450 nm was measured using a microplate reader (PE, EnVision2105). Data were analysed using GraphPad Prism 8.3.0.
Experimental data processing method: Data were analysed using GraphPad Prism 8.3.0.
Inhibition rate% = [(average value of positive control wells - value of sample wells)/(average value of positive control wells - average value of negative control wells)] × 100%, where the sample wells are wells containing cells plus compounds at different concentration gradients, the positive control wells are wells containing cells plus IL-17A, and the negative control wells are wells containing culture medium plus IL-17A.
Curve fitting: The IC50 value was obtained by curve fitting based on the inhibition rate (%) at each concentration using the log(inhibitor) vs. responseVariable slope (four parameters) in GraphPad Prism 6.0, and the calculation equation was Y = Bottom + (Top-Bottom)/(1+10^((LogIC50-X)*HillSlope)).

AUC(0-t) ([1]; in vivo) [ng·h/mL] | Cmax ([1]; in vivo) [ng/mL] | Tmax ([1]; in vivo) [h] | half-life ([1]; in vivo) [h] | IC50 ([2]; HT-29, 48 h) [nM] | SMILES | IC50 ([2]; 48 hours) [nM] | AUC(0-t) ([1]; plasma) [ng·h/mL] | Cmax ([1]; plasma) [ng/mL] | Tmax ([1]; plasma) [h] | half-life ([1]; plasma) [h]
24400 | 2310 | 4 | 4.5 | 5 | C[C@H]1CC[C@H]([C@H](NC(=O)C2(F)CC2)C(=O)Nc2ncc([C@@H](CN3CCC(C(F)(F)F)CC3)N3CC(F)(F)CNC3=O)s2)CC1 [Example 774, N-((S)-2-((5-((R)-1-(5,5-difluoro-2-oxotetrahydropyrimidin-1(2H)-yl)-2-(4-(trifluoromethyl)piperidin-1-yl)ethyl)thiazol-2-yl)amino)-1-((1r,4S)-4-methylcyclohexyl)-2-oxoethyl)-1-fluorocyclopropane-1-carboxamide] | – | – | – | – | –
15300 | 1750 | 2 | 4.3 | 8.1 | [2H]C([2H])([2H])C([2H])([2H])n1nccc1C(=O)NC(C(=O)Nc1ncc(C(COC)n2cc(Cl)ccc2=O)s1)C1CCC(C)CC1 (centres unmarked) [Example 586] | – | – | – | – | –
13200 | 1500 | 4 | 9.4 | 2.3 | [2H]C([2H])([2H])C([2H])([2H])n1nccc1C(=O)N[C@H](C(=O)Nc1ncc([C@@H](CN2CCC3(CC2)CC3(F)F)N2CC(F)(F)CCC2=O)s1)[C@H]1CC[C@H](C)CC1 [Example 958] | – | – | – | – | –
28400 | 2540 | 4 | 3.8 | 4.6 | [2H]C([2H])([2H])C([2H])([2H])n1nccc1C(=O)N[C@H](C(=O)Nc1ncc([C@@H](CN2CCOC[C@@H]2C)N2CC(F)(F)CCC2=O)s1)[C@H]1CC[C@H](C)CC1 [Example 816] | – | – | – | – | –
15700 | 1600 | 4 | 3.7 | 3 | [2H]C([2H])([2H])C([2H])([2H])n1nccc1C(=O)NC(C(=O)Nc1ncc(C(CN2CC(C)OCC2C)N2CC(F)(F)CCC2=O)s1)C1CCC(C)CC1 [Example 864, N-((S)-2-((5-((R)-1-(5,5-difluoro-2-oxopiperidin-1-yl)-2-((2R,5S)-2,5-dimethylmorpholino)ethyl)thiazol-2-yl)amino)-1-((1r,4S)-4-methylcyclohexyl)-2-oxoethyl)-1-(ethyl-d5)-1H-pyrazole-5-carboxamide] | – | – | – | – | –
24600 | 4930 | 2 | 2.9 | 3.5 | [2H]C([2H])([2H])OC1CCN(CC(c2cnc(NC(=O)C(NC(=O)c3ccnn3C([2H])([2H])C([2H])([2H])[2H])C3CCC(C)CC3)s2)N2CC(F)(F)CCC2=O)CC1F (centres unmarked) [Example 992] | – | – | – | – | –
19800 | 3830 | 2 | 2.4 | 8 | CCn1nccc1C(=O)N[C@H](C(=O)Nc1ncc([C@@H](CN2CCC(OC)CC2)N2CC(F)(F)CCC2=O)s1)[C@H]1CC[C@H](C)CC1 [Example 646] | – | – | – | – | –

More lines, now with the values behind:

SMILES | AUC(0-t) ([1]; in vivo) [ng·h/mL] | Cmax ([1]; in vivo) [ng/mL] | Tmax ([1]; in vivo) [h] | half-life ([1]; in vivo) [h] | IC50 ([2]; HT-29, 48 h) [nM] | IC50 ([2]; 48 hours) [nM] | AUC(0-t) ([1]; plasma) [ng·h/mL] | Cmax ([1]; plasma) [ng/mL] | Tmax ([1]; plasma) [h] | half-life ([1]; plasma) [h]
[2H]C([2H])([2H])C([2H])([2H])n1nccc1C(=O)N[C@H](C(=O)Nc1ncc([C@@H](CN2CCC(C(F)F)CC2)N2CC(F)(F)CCC2=O)s1)[C@H]1CC[C@H](C)CC1 [Example 938] | 12500 | 1240 | 4 | 6 | 4.4 | – | – | – | – | –
[2H]C([2H])([2H])C([2H])([2H])n1nccc1C(=O)N[C@H](C(=O)Nc1ncc([C@@H](CN2CCO[C@@H](C)C2)N2CC(F)(F)CCC2=O)s1)[C@H]1CC[C@H](C)CC1 [Example 628] | 20900 | 2270 | 4 | 3.3 | – | 6.7 | – | – | – | –
[2H]C([2H])([2H])C([2H])([2H])n1nccc1C(=O)N[C@H](C(=O)Nc1ncc([C@@H](CN2CCOCC2)N2CC(F)(F)CCC2=O)s1)[C@H]1CC[C@H](C)CC1 [Example 624, N-((S)-2-((5-((R)-1-(5,5-difluoro-2-oxopiperidin-1-yl)-2-morpholinoethyl)thiazol-2-yl)amino)-1-((1r,4S)-4-methylcyclohexyl)-2-oxoethyl)-1-(ethyl-d5)-1H-pyrazole-5-carboxamide] | – | – | – | – | – | 4.3 | 11000 | 3400 | 1 | 1
[2H]C([2H])([2H])C([2H])([2H])n1nccc1C(=O)N[C@H](C(=O)Nc1ncc([C@@H](CN2C[C@@H](C)O[C@@H](C)C2)N2CC(F)(F)CCC2=O)s1)[C@H]1CC[C@H](C)CC1 [Example 849, N-((S)-2-((5-((R)-1-(5,5-difluoro-2-oxopiperidin-1-yl)-2-((2R,6S)-2,6-dimethylmorpholino)ethyl)thiazol-2-yl)amino)-1-((1r,4S)-4-methylcyclohexyl)-2-oxoethyl)-1-(ethyl-d5)-1H-pyrazole-5-carboxamide] | – | – | – | – | – | 4 | 15500 | 2480 | 2 | 2.8
[2H]C([2H])([2H])C([2H])([2H])n1nccc1C(=O)NC(C(=O)Nc1ncc(C(COC)N2CC(F)(F)CCC2=O)s1)C1CCC(C)CC1 [Example 613, N-((S)-2-((5-((R)-1-(5,5-difluoro-2-carbonylpiperidin-1-yl)-2-methoxyethyl)thiazol-2-yl)amino)-1-((1r,4S)-4-methylcyclohexyl)-2-carbonylethyl)-1-(ethyl-d5)-1H-pyrazole-5-carboxamide] | – | – | – | – | – | 5.6 | 21000 | 3300 | 2 | 2.6
[2H]C([2H])([2H])C([2H])([2H])n1nccc1C(=O)NC(C(=O)Nc1ncc(C(CN2CCOCC2C)N2CC(F)(F)CCC2=O)s1)C1CCC(C)CC1 (centres unmarked) [Example 818] | 15500 | 2650 | 2 | 3.1 | 2.6 | – | – | – | – | –
[2H]C([2H])([2H])C([2H])([2H])n1nccc1C(=O)N[C@H](C(=O)Nc1ncc([C@@H](CN2CCC(CF)CC2)N2CC(F)(F)CCC2=O)s1)[C@H]1CC[C@H](C)CC1 [Example 928] | 18900 | 2160 | 4 | 4.5 | 4 | – | – | – | – | –
[2H]C([2H])([2H])O[C@@H]1CCN(C[C@H](c2cnc(NC(=O)[C@@H](NC(=O)c3ccnn3C([2H])([2H])C([2H])([2H])[2H])[C@H]3CC[C@H](C)CC3)s2)N2CC(F)(F)CCC2=O)C[C@@H]1F [Example 994] | 13100 | 2000 | 4 | 2.4 | 9 | – | – | – | – | –
[2H]C([2H])([2H])C([2H])([2H])n1nccc1C(=O)N[C@H](C(=O)Nc1ncc([C@@H](CN2CCC(C(F)(F)F)CC2)N2CC(F)(F)CCC2=O)s1)[C@H]1CC[C@H](C)CC1 [Example 948] | 18800 | 1710 | 4 | 9.3 | 6.5 | – | – | – | – | –
[2H]C([2H])([2H])C([2H])([2H])n1nccc1C(=O)N[C@H](C(=O)Nc1ncc([C@@H](CN2CCO[C@H](C)C2)N2CC(F)(F)CCC2=O)s1)[C@H]1CC[C@H](C)CC1 [Example 627, N-((S)-2-((5-((R)-1-(5,5-difluoro-2-oxopiperidin-1-yl)-2-((R)-2-methylmorpholino)ethyl)thiazol-2-yl)amino)-1-((1r,4S)-4-methylcyclohexyl)-2-oxoethyl)-1-(ethyl-d5)-1H-pyrazole-5-carboxamide] | – | – | – | – | – | 6.3 | 22100 | 2530 | 4 | 3.2
[2H]C([2H])([2H])C([2H])([2H])n1nccc1C(=O)N[C@H](C(=O)Nc1ncc([C@@H](CN2C[C@H](C)O[C@@H](C)C2)N2CC(F)(F)CCC2=O)s1)[C@H]1CC[C@H](C)CC1 [Example 854, N-((S)-2-((5-((R)-1-(5,5-difluoro-2-oxopiperidin-1-yl)-2-((2S,6S)-2,6-dimethylmorpholino)ethyl)thiazol-2-yl)amino)-1-((1r,4S)-4-methylcyclohexyl)-2-oxoethyl)-1-(ethyl-d5)-1H-pyrazole-5-carboxamide] | – | – | – | – | – | 9 | 14900 | 2170 | 1 | 3
[2H]C([2H])([2H])C([2H])([2H])n1nccc1C(=O)N[C@H](C(=O)Nc1ncc([C@@H](CN2C[C@@H](C)O[C@H](C)C2)N2CC(F)(F)CCC2=O)s1)[C@H]1CC[C@H](C)CC1 [Example 857, N-((S)-2-((5-((R)-1-(5,5-difluoro-2-oxopiperidin-1-yl)-2-((2R,6R)-2,6-dimethylmorpholino)ethyl)thiazol-2-yl)amino)-1-((1r,4S)-4-methylcyclohexyl)-2-oxoethyl)-1-(ethyl-d5)-1H-pyrazole-5-carboxamide] | – | – | – | – | – | 2.4 | 15900 | 2290 | 2 | 3.5
